Results published in US6869951B1, “Method of changing conformation of a matrix metalloproteinase” (Pharmacia Corporation, priority 1999, dated 2005).
Where a name gives a salt, the structure may show the parent alone.

How the values were obtained:
[1] = molecular target: T1, MMP-8 catalytic domain (residues 85-242) (Homo sapiens, UniProt P22894); experiment: X-ray crystallography of MMP-8 catalytic domain inhibitor complexes; conditions: X-ray crystal structure of the complex, IX, XI relative to compound XII
T1 construct: The catalytic domain (residues 85-242) of MMP-8, neutrophil collagenase, folds into a compact globular structure; made in house
T1 sequence (P22894 105-262): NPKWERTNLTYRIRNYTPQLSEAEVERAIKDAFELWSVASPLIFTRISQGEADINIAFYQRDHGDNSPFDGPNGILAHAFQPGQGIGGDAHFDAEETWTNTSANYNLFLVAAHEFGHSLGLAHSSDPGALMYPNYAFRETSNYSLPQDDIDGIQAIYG
Text: The MMP-8 catalytic domain was cloned by PCR amplification from a cDNA contruct of full-length MMP-8. The amplified DNA was cloned into NdeI/HindIII restriction sites in an in-house pRec expression vector. Protein was expressed in a bacterial expression system by induction with nalidixic acid. Recombinant protein was expressed primarily as inclusion bodies. Purified protein was recovered in high yield following ion exchange chromatography of denatured protein.
Slow dehydration of the drop leads to formation of single crystals of the inhibitor complex. Details are below.
12 mg/ml MMP-8 in 10 mM MES pH 6.0, 100 mM NaCl, 5 mM CaCl2 pre-incubated with 1 mM inhibitor for 10 minutes at ambient temperature.
4 ul of the protein-inhibitor complex mixed with 6.8 ul 10% PEG6000 and 0.2 M MES pH 6.0
0.8 to 2.5 M sodium/potassium phosphate pH 6.0 (not mixed with protein/inhibitor/PEG drop).
Intensities from crystals of the enzyme inhibitor complexes were measured on a MAR image plate at −140° C. X-rays were generated from a rotating anode generator using a Cu target. The CuKα X-rays were focused onto the samples using long Pt and Ni mirrors.
The data were integrated and scaled using the program DENZO (Otwinowski, Z. and Minor W. in Proceedings of CCP4 Study Weekend: Data Collection and Processing (eds. Sawyer, L., Issacs, N., and Bailey, S.) pp. 56-62 (SERC Daresbury Laboratories, Warrington, UK 1993)).
Standard simulated annealing protocols in the program XPLOR (Brünger, A. T. (1993). XPLOR (Version 3.1): A System for X-ray Crystallography and NMR (Yale University Press, New Haven, Conn.)) were used.
New electron density at the expected active site could in all cases be interpreted with flexible, three-dimensional models of the inhibitors as generated in the program […] (Biosym Technologies (1993). Insight II User Guide, Version 2.2.0. San Diego). Solvent positions were also identified from these electron density maps and side chains of the protein were also sometimes manually adjusted.
Final refinements of the structure were carried out with inclusion of inhibitor and solvent ligands. In the refinements, 10% of the data was set aside for cross validation by evaluation of Rfree (A. T. Brünger, “Free R Value: a novel statistical quantity for accessing the accuracy of crystal structures,” Nature 355, 472-475 (1992)).

[2] = clinical trials in cancer patients; cited from earlier work
cancer-specific antigens = conditions: meta analysis of Phase I/II studies; advanced, treatment-refractory solid tumor cancers (colorectal, pancreatic, ovarian, prostate); cited from earlier work

SMILES | effect on conformation of the amino acid backbone of the S1' pocket of MMP-8 [1] | most common drug-related toxicity [2] | effect on rise of cancer-specific antigens used as surrogate markers for biological activity (cancer-specific antigens)
CCCCCc1ccc(C(=O)Nc2ccc(S(=O)(=O)N(CCN3CCOCC3)[C@@H](C(=O)NO)C(C)C)cc2)cc1 [Compound X, R-N-[4-[[[1-(hydroxyamino)carbonyl]-2-methylpropyl][2-(4-morpholinyl)ethyl]amino]-sulfonyl]phenyl]-4-pentylbenzamide, monohydrochloride] | causes the backbone to deform significantly |  | 
CCCCCCc1ccc(C(=O)Nc2ccc(S(=O)(=O)N(CCN3CCOCC3)[C@@H](C(=O)NO)C(C)C)cc2)cc1 [Compound XI, (R)-4-hexyl-N-[4-[[[1-(hydroxyamino)-carbonyl]-2-methylpropyl][2-(4-morpholinyl)ethyl]amino]sulfonyl]-phenylbenzamide, monohydrochloride] | causes the backbone to deform significantly |  | 
CC(O)(CS(=O)(=O)c1ccc(Oc2ccccc2)cc1)C(=O)NO (stereo not shown) [Compound XIV, reference compound] | essentially no effect on the conformation of the amino acid backbone |  | 
CCCCCc1ccc(C(=O)Nc2ccc(S(=O)(=O)N(CCN3CCOCC3)[C@@H](C(=O)O)C(C)C)cc2)cc1 [IX, N-[2-(4-morpholinyl)ethyl]-N-[[4-[(4-pentylbenzoyl)amino]phenyl]sulfonyl]-D-valine] | causes the backbone to deform significantly |  | 
CCCc1ccc(C(=O)Nc2ccc(S(=O)(=O)N[C@@H](C(=O)O)C(C)C)cc2)cc1 [XII] | essentially no effect on the conformation of the amino acid backbone |  | 
CNC(=O)[C@@H](NC(=O)[C@H](CC(C)C)[C@H](O)C(=O)NO)C(C)(C)C [marimastat] |  | musculoskeletal pain and stiffness | dose-related reduction in the rise of cancer-specific antigens
